# Experimental data reported in patent US9828379B2 (priority 2013, dated 2017).
# Experiments:
# Assay in all cases: In vitro competitive activity-based protein profiling (Table 2, % inhibition at 1 μM)
# Type in all cases: biochemical
# ABHD6 = target: T1, ABHD6 (Mus musculus, UniProt Q8R2Y0); conditions: read-out: % Inhibition at 1 μM ABHD6
# T1 sequence (Q8R2Y0 1-336): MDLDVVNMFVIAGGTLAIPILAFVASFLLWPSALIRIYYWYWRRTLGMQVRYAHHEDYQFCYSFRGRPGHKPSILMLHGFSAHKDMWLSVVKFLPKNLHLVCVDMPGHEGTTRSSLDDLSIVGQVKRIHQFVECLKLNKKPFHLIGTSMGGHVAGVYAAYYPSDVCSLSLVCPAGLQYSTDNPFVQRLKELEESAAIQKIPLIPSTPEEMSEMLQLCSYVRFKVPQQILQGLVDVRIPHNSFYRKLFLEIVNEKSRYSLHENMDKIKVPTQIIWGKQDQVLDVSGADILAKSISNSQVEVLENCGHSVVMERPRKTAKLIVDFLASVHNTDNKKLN
# Method: (§1) After 30 min, FP—Rh (1.0 μL, 50 μM in DMSO) was added and the mixture was incubated for another 30 min at 37° C. Reactions were quenched with SDS loading buffer (50 μL-4×) and run on SDS-PAGE. Following gel imaging, serine hydrolase activity was determined by measuring fluorescent intensity of gel bands corresponding to MAGL, ABHD6 and FAAH using ImageJ 1.43 u software.
# (§2) hMAGL was expressed in HEK293T cells according to previously reported methods (see Niphakis, Long, and Blankman, J. L., et al. (2007) Chem. Biol. 14:1347-1356). Cell lysates were diluted with mock proteomes for use in competitive ABPP experiments.
# FAAH = target: T2, FAAH (Mus musculus, UniProt O08914); conditions: read-out: % Inhibition at 1 μM FAAH
# T2 sequence (O08914 1-579): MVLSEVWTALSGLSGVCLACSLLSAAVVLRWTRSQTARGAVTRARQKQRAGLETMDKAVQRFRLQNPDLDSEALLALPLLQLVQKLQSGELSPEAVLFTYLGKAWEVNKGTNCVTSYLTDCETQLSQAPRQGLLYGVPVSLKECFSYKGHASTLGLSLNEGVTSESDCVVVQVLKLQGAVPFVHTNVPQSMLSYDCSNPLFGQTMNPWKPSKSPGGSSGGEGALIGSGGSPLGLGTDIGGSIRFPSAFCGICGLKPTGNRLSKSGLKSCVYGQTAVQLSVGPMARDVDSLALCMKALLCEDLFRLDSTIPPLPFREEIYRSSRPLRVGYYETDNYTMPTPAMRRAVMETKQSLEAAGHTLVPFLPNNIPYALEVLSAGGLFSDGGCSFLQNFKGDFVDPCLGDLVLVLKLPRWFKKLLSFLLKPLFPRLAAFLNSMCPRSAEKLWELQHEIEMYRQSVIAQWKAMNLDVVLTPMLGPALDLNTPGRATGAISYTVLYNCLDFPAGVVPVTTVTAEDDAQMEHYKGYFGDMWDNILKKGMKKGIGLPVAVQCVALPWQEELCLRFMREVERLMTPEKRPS
# Method: as §1, §2
# MAGL = target: T3, MAGL (Mus musculus, UniProt O35678); conditions: read-out: % Inhibition at 1 μM MAGL
# T3 sequence (O35678 1-303): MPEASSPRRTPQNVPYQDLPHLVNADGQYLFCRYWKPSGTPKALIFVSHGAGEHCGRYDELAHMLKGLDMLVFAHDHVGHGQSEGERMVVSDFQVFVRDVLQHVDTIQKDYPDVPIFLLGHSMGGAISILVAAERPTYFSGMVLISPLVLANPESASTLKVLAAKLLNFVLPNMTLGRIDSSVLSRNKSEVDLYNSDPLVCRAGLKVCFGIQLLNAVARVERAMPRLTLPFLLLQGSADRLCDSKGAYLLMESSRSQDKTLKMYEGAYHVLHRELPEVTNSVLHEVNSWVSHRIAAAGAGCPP
# Method: After 30 min, FP—Rh (1.0 μL, 50 μM in DMSO) was added and the mixture was incubated for another 30 min at 37° C. Reactions were quenched with SDS loading buffer (50 μL-4×) and run on SDS-PAGE.
# Cell lysates were diluted with mock proteomes for use in competitive ABPP experiments.
Structure (SMILES),inhibition at 1 µM (ABHD6),inhibition at 1 µM (FAAH),inhibition at 1 µM (MAGL)
"Cn1cc(CN2CC3CN(C(=O)OC(C(F)(F)F)C(F)(F)F)CC3C2)c(C2CCN(S(C)(=O)=O)CC2)n1 (centres unmarked) [Example 56, 1,1,1,3,3,3-Hexafluoropropan-2-yl 5-[[3-(1-methanesulfonylpiperidin-4-yl)-1-methyl-1H-pyrazol-4-yl]methyl]-octahydropyrrolo[3,4-c]pyrrole-2-carboxylate]",< 25%,< 25%,> 75%
"O=C(ON1C(=O)CCC1=O)N1CC2CN(Cc3ccc(C(=O)N4CCCC4)cc3Cl)CC2C1 (centres unmarked) [Example 164, 2,5-dioxopyrrolidin-1-yl 5-(2-chloro-4-(pyrrolidine-1-carbonyl)benzyl)-hexahydropyrrolo[3,4-c]pyrrole-2(1H)-carboxylate]",25 to 75%,< 25%,25 to 75%
"CC1COCCN1c1cc(Cl)ccc1CN1CC2CN(C(=O)ON3C(=O)CCC3=O)CC2C1 (centres unmarked) [Example 95, 2,5-Dioxopyrrolidin-1-yl 5-[[4-chloro-2-(3-methylmorpholin-4-yl)phenyl]methyl]-octahydropyrrolo[3,4-c]pyrrole-2-carboxylate]",< 25%,< 25%,25 to 75%
"CC(=O)NC1CCN(c2cccc(CN3CC4CN(C(=O)ON5C(=O)CCC5=O)CC4C3)c2C)CC1 (centres unmarked) [Example 142, 2,5-dioxopyrrolidin-1-yl 5-[[3-(4-acetamidopiperidin-1-yl)-2-methylphenyl]methyl]-octahydropyrrolo[3,4-c]pyrrole-2-carboxylate]",< 25%,< 25%,< 25%
"CC(C)n1cc(CN2CC3CN(C(=O)ON4C(=O)CCC4=O)CC3C2)c(-c2ccccc2)n1 (centres unmarked) [Example 117, 2,5-Dioxopyrrolidin-1-yl 5-[[3-phenyl-1-(propan-2-yl)-1H-pyrazol-4-yl]methyl]-octahydropyrrolo[3,4-c]pyrrole-2-carboxylate]",25 to 75%,< 25%,25 to 75%
"O=C(ON1C(=O)CCC1=O)N1CC2CN(Cc3ccc(C(=O)N4CCC4)cc3F)CC2C1 (centres unmarked) [Example 168, 2,5-dioxopyrrolidin-1-yl5-(4-(azetidine-1-carbonyl)-2-fluorobenzyl)-hexahydropyrrolo[3,4-c]pyrrole-2(1H)-carboxylate]",< 25%,–,–
"CC(=O)N1CCN(c2cc(F)ccc2CN2CC3CN(C(=O)ON4C(=O)CCC4=O)CC3C2)CC1 (centres unmarked) [Example 92, 2,5-Dioxopyrrolidin-1-yl 5-[[2-(4-acetylpiperazin-1-yl)-4-fluorophenyl]methyl]-octahydropyrrolo[3,4-c]pyrrole-2-carboxylate]",< 25%,< 25%,< 25%
"O=C(ON1C(=O)CCC1=O)N1CC2CN(Cc3ccc(Cl)cc3N3CCN4CCC[C@@H]4C3)CC2C1 (stereo partly drawn) [Example 109, 2,5-Dioxopyrrolidin-1-yl 5-(4-chloro-2-((R)-hexahydropyrrolo[1,2-a]pyrazin-2(1H)-yl)benzyl)-hexahydropyrrolo[3,4-c]pyrrole-2(1H)-carboxylate]",< 25%,< 25%,< 25%
"O=C(OC(C(F)(F)F)C(F)(F)F)N1CC2CN(Cc3ccc(F)cc3N3CCOCC3)CC2C1 (centres unmarked) [Example 14, 1,1,1,3,3,3-Hexafluoropropan-2-yl 5-[[4-fluoro-2-(morpholin-4-yl)phenyl]methyl]-octahydropyrrolo[3,4-c]pyrrole-2-carboxylate]",< 25%,25 to 75%,> 75%
"O=C(ON1C(=O)CCC1=O)N1CC2CN(Cc3ccc(C(=O)N4CCCC4)cc3F)CC2C1 (centres unmarked) [Example 167, 2,5-dioxopyrrolidin-1-yl5-(2-fluoro-4-(pyrrolidine-1-carbonyl)benzyl)-hexahydropyrrolo[3,4-c]pyrrole-2(1H)-carboxylate]",< 25%,–,–
